Patent publication US20250375422A1, “METHOD FOR TREATING CANCERS” (Acura Nanomedicine Corporation, priority 2019, published 2025)

Tested on: BxPC-3 cells
Assay: MTT assay, cell viability of pancreatic cancer BxPC-3 cells
Type: cell-based, human
Description: Cell lines used in the present disclosure include human pancreatic cancer cell lines BxPC-3, Mia-Paca-2/R (gemcitabine resistant cell line), and Panc-1/R (gemcitabine resistant cell line); human liver cancer cell lines SK-Hep-1 and Hep 3B; and human brain glioblastoma cell line GBM8401, which is a TMZ-resistant cell line. Cells were cultured in Dulbecco's modified Eagle media (DMEM) supplemented with 10% heat inactivated fetal bovine serum (FBS), 50 units/mL penicillin G, 50 μg/mL streptomycin (pH 7.4), and the cells were maintained in humidified environment comprising 5% CO2/95% air at 37° C.
The absorbance of the solution at 570 nm was measured by spectrophotometer.

Structure (SMILES) | cell viability of BxPC-3 cells (HCQ (20 or 50 μM) alone) | viability at 5 µM (Homo sapiens, BXPC-3, MBZ (5 μM)) [%]
CCN(CCO)CCCC(C)Nc1ccnc2cc(Cl)ccc12 (centres unmarked) [HCQ, hydroxychloroquine] | slightly and/or unaffected | 
COC(=O)Nc1nc2ccc(C(=O)c3ccccc3)cc2[nH]1 [MBZ, mebendazole] |  | ~60
